Laboratory results published in patent US6949557B2, “Hydroanthracene based compounds as anticancer agents” (Dabur Research Foundation, priority 2003, dated 2005).
Converted amounts (≈) assume the structure as drawn.

How the values were obtained:
MOLT4 = assay: three day MTT cytotoxicity assay, MOLT4; type: cell-based, human; settings: 72 hours incubation, MOLT4 leukemia cells
Experimental: (§1) A number of the anthracene based compounds were tested for cytotoxicity against 12 human tumor cell lines. Briefly, a three day MTT cytotoxicity assay was performed, which is based on the principle of uptake of MTT (3-(4,5-dimethylthiazol-2-yl)-2,5-diphenyl tetrazolium bromide), a tetrazolium salt, by the metabolically active cells where it is metabolized by active mitochondria into a blue colored formazan product that is read spectrophotometrically. MTT was dissolved in phosphate buffered saline with a pH of 7.4 to obtain an MTT concentration of 5 mg/ml; the resulting mixture was filtered through a 0.22 micron filter to sterilize and remove a small amount of insoluble residue. For each type of tumor cell, 10,000 to 15,000 cells were seeded in a 96-well culture plate and incubated with the individual anthracene based compounds in a CO2 incubator for a total of 72 hours. Control cells not treated with the anthracene based compounds were similarly incubated. The assay was terminated by adding 100 ug (20 ul) of MTT to each well, then incubating for additional one hour, and finally adding 50 ul of 10% SDS-0.01N HCl to each well to lyse the cells and dissolve formazan. After incubating for one hour, the plate was read spectrophotometrically at 540 nm and the percentage of cytotoxicity calculated using the following formula:
(§2) Cytotoxicity percentage=100×[1−(X/R1)],
(§3) where X=(absorbance of treated sample at 540 nm)−(absorbance of blank at 540 nm)
(§4) R1=absorbance of control sample at 540 nm.
(§5) The IC50 Values of the cytotoxicity defined as the concentration at which 50% of the cells are killed in vitro was calculated for each cell line treated with each of the anthracene based compounds.

U87MG = assay: three day MTT cytotoxicity assay, U87MG; type: cell-based, human; settings: 72 hours incubation, U87MG glioblastoma cells
Experimental: as §1, §2, §3, §4, §5

KB = assay: three day MTT cytotoxicity assay, KB; type: cell-based, human; settings: 72 hours incubation, KB oral cells
Experimental: as §1, §2, §3, §4, §5

PTC = assay: three day MTT cytotoxicity assay, PTC; type: cell-based, human; settings: 72 hours incubation, PTC colon cells
Experimental: as §1, §2, §3, §4, §5

HT29 = assay: three day MTT cytotoxicity assay, HT29; type: cell-based, human; settings: 72 hours incubation, HT29 colon cells
Experimental: as §1, §2, §3, §4, §5

MCF7 = assay: three day MTT cytotoxicity assay, MCF7; type: cell-based, human; settings: 72 hours incubation, MCF7 breast cells
Experimental: as §1, §2, §3, §4, §5

Hep2 = assay: three day MTT cytotoxicity assay, Hep2; type: cell-based, human; settings: 72 hours incubation, Hep2 larynx cells
Experimental: as §1, §2, §3, §4, §5

L132 = assay: three day MTT cytotoxicity assay, L132; type: cell-based, human; settings: 72 hours incubation, L132 lung cells
Experimental: as §1, §2, §3, §4, §5

PA1 = assay: three day MTT cytotoxicity assay, PA1; type: cell-based, human; settings: 72 hours incubation, PA1 ovarian cells
Experimental: as §1, §2, §3, §4, §5

DU145 = assay: three day MTT cytotoxicity assay, DU145; type: cell-based, human; settings: 72 hours incubation, DU145 prostate cells
Experimental: as §1, §2, §3, §4, §5

MiaPaca2 = assay: three day MTT cytotoxicity assay, MiaPaca2; type: cell-based, human; settings: 72 hours incubation, MiaPaca2 pancreatic cells
Experimental: as §1, §2, §3, §4, §5

ECV304 = assay: three day MTT cytotoxicity assay, ECV304; type: cell-based, human; settings: 72 hours incubation, ECV304 endothelial cells
Experimental: as §1, §2, §3, §4, §5

| SMILES | ED50 MOLT4 Leukemia (MOLT4) | ED50 U87MG Glioblastoma (U87MG) | ED50 KB Oral (KB) | ED50 PTC Colon (PTC) | ED50 HT29 Colon (HT29) | ED50 MCF7 Breast (MCF7) | ED50 Hep2 Larynx (Hep2) | ED50 L132 Lung (L132) | ED50 PA1 Ovarian (PA1) | ED50 DU145 Prostate (DU145) | ED50 MiaPaca2 Pancreatic (MiaPaca2) | ED50 ECV304 Endothelial (ECV304) | melting point |
| --- | --- | --- | --- | --- | --- | --- | --- | --- | --- | --- | --- | --- | --- |
| COc1ccc(OC)c2c1CC1C(OC(=O)C(O)C(N)c3ccccc3)C(C)=CCC1C2(C)C (stereo not shown) [Compound 7, 3-Amino-2-hydroxy-3-phenyl-propionic acid 5,8-dimethoxy-2,10,10-trimethyl-1,4,4a,9,9a,10-hexahydro-anthracen-1-yl ester] | 5.0 µg/mL (≈ 10.7 µM) | 24 µg/mL (≈ 51.5 µM) | 29 µg/mL (≈ 62.3 µM) | 5.0 µg/mL (≈ 10.7 µM) | 8.0 µg/mL (≈ 17.2 µM) | 35 µg/mL (≈ 75.2 µM) | 5.0 µg/mL (≈ 10.7 µM) | 24 µg/mL (≈ 51.5 µM) | 5.0 µg/mL (≈ 10.7 µM) | 33 µg/mL (≈ 70.9 µM) | 35 µg/mL (≈ 75.2 µM) | 6.0 µg/mL (≈ 12.9 µM) |  |
| COc1ccc(OC)c2c1C[C@]1(C)C(OC(=O)[C@H](O)[C@@H](N)c3ccccc3)C(C)=CC[C@H]1C2(C)C (stereo partly shown) [Compound 11, 3-Amino-2-hydroxy-3-phenyl-propionic acid 5,8-dimethoxy-2,9a,10,10-tetramethyl-1,4,4a,9,9a,10-hexahydro-anthrcen-1-yl ester] | <1 µg/mL | 10 µg/mL (≈ 20.8 µM) | 18 µg/mL (≈ 37.5 µM) |  | 27 µg/mL (≈ 56.3 µM) | 8 µg/mL (≈ 16.7 µM) | 16 µg/mL (≈ 33.4 µM) | 21 µg/mL (≈ 43.8 µM) | 4 µg/mL (≈ 8.34 µM) | 10 µg/mL (≈ 20.8 µM) | 7 µg/mL (≈ 14.6 µM) | 2 µg/mL (≈ 4.17 µM) |  |
| CC1=CCC2C(C)(C)C3=C(CC2(C)C1=O)C(=O)C=CC3=O (stereo not shown) [Compound 19, 6,9,9,10a-Tetramethyl-8a,9,10,10a-tetrahydro-8H-anthracene-1,4,5-trione] | 4 µg/mL (≈ 14.1 µM) | 16 µg/mL (≈ 56.3 µM) | 62 µg/mL (≈ 218 µM) | 40 µg/mL (≈ 141 µM) | 33 µg/mL (≈ 116 µM) | 18 µg/mL (≈ 63.3 µM) | 26 µg/mL (≈ 91.4 µM) | 6 µg/mL (≈ 21.1 µM) | 15 µg/mL (≈ 52.8 µM) | 15 µg/mL (≈ 52.8 µM) | 80 µg/mL (≈ 281 µM) | 6 µg/mL (≈ 21.1 µM) |  |
| CC1=CCC2C(CC3=C(C(=O)C=CC3=O)C2(C)C)C1=O (stereo not shown) [Compound 20, 6,9,9-Trimethyl-8a,9, 10,10a-tetrahydro-8H-anthracene-1,4,5-trione] |  |  |  |  |  |  |  |  |  |  |  |  | 125 to 140 °C |
| CC1=CCC2C(C)(C)C3=C(CC2(C)C1OC(=O)C1OC(C)(C)N(C(=O)OC(C)(C)C)C1c1ccccc1)C(=O)C=CC3=O (stereo not shown) [Compound 23, 2,2-Dimethyl-4-phenyl-oxazolidine-3,5-dicarboxylic acid 3-tert-butyl ester 5-(2,9a,10,10-tetramethyl-5,8-dioxo-1,4,4a,5,8,9,9a,10-octahydro-anthracen-1-yl) ester] |  |  |  |  |  |  |  |  |  |  |  |  | 90 to 92 °C |
| CC1=CCC2C(C)(C)C3=C(CC2(C)C1OC(=O)C(O)C(N)c1ccccc1)C(=O)C=CC3=O (stereo not shown) [Compound 24, 3-Amino-2-hydroxy-3-phenyl-propionic acid 2,9a,10,10-tetramethyl-5,8-dioxo-1,4,4a,5,8,9,9a,10-octahydro-anthracen-1-yl ester] | 7 µg/mL (≈ 15.6 µM) | 5 µg/mL (≈ 11.1 µM) | 6.6 µg/mL (≈ 14.7 µM) |  | 6 µg/mL (≈ 13.3 µM) | >100 µg/mL | 14 µg/mL (≈ 31.1 µM) | >100 µg/mL | 8 µg/mL (≈ 17.8 µM) | 5 µg/mL (≈ 11.1 µM) | >100 µg/mL | 3 µg/mL (≈ 6.67 µM) |  |
| CC1=CCC2C(CC3=C(C(=O)C=CC3=O)C2(C)C)C1OC(=O)C1OC(C)(C)N(C(=O)OC(C)(C)C)C1c1ccccc1 (stereo not shown) [Compound 25, 2,2-Dimethyl-4-phenyl-oxazolidine-3,5-dicarboxylic acid 3-tert-butyl ester 5-(2,10,10-trimethyl-5,8-dioxo-1,4,4a,5,8,9,9a,10-octahydro-anthracen-1-yl) ester] | <1 µg/mL | 24 µg/mL (≈ 41.7 µM) | 35 µg/mL (≈ 60.8 µM) | 8 µg/mL (≈ 13.9 µM) | 35 µg/mL (≈ 60.8 µM) | 16 µg/mL (≈ 27.8 µM) | 11 µg/mL (≈ 19.1 µM) | 4 µg/mL (≈ 6.95 µM) | 8 µg/mL (≈ 13.9 µM) | 32 µg/mL (≈ 55.6 µM) | 35 µg/mL (≈ 60.8 µM) | 5 µg/mL (≈ 8.69 µM) |  |
| CC1=CCC2C(CC3=C(C(=O)C=CC3=O)C2(C)C)C1OC(=O)C(O)C(N)c1ccccc1 (stereo not shown) [Compound 26, 3-Amino-2-hydroxy-3-phenyl-propionic acid 2,10,10-trimethyl-5,8-dioxo-1,4,4a,5,8,9,9a,10-octahydro-anthracen-1-yl ester] | 5.0 µg/mL (≈ 11.5 µM) | 24 µg/mL (≈ 55.1 µM) | 31 µg/mL (≈ 71.2 µM) | 5.0 µg/mL (≈ 11.5 µM) | 6.5 µg/mL (≈ 14.9 µM) | 32 µg/mL (≈ 73.5 µM) | 20 µg/mL (≈ 45.9 µM) | 10 µg/mL (≈ 23 µM) | 19 µg/mL (≈ 43.6 µM) | 26 µg/mL (≈ 59.7 µM) | 35 µg/mL (≈ 80.4 µM) | 29 µg/mL (≈ 66.6 µM) |  |
| CC1=CCC2C(C)(C)C3=C(CC2(C)C1OC(=O)c1cc(Cl)nc(Cl)n1)C(=O)C=CC3=O (stereo not shown) [Compound 27, 2,6-Dichloro-pyrimidine-4-carboxylicacid-2,9a,10,10-tetramethyl-5,8-dioxo-1,4,4a,5,8,9,9a,10-octahydro-anthracen-1-yl ester] |  |  |  |  |  |  |  |  |  |  |  |  | 137 to 140 °C |
| COc1ccc(OC)c2c1Cc1c(ccc(C)c1OC(=O)[C@H](O)[C@@H](N)c1ccccc1)C2(C)C [Compound 29, 3-Amino-2-hydroxy-3-phenyl-propionic acid 5,8-dimethoxy-2,10,10,-trimethyl-9,10-dihydro-anthracen-1-yl ester] | 5.0 µg/mL (≈ 10.8 µM) | 8.0 µg/mL (≈ 17.3 µM) | 30 µg/mL (≈ 65 µM) | 5.0 µg/mL (≈ 10.8 µM) | 6.5 µg/mL (≈ 14.1 µM) | 29 µg/mL (≈ 62.8 µM) | 5.0 µg/mL (≈ 10.8 µM) | 5.0 µg/mL (≈ 10.8 µM) | 5.0 µg/mL (≈ 10.8 µM) | 34 µg/mL (≈ 73.7 µM) | 35 µg/mL (≈ 75.8 µM) | 9.0 µg/mL (≈ 19.5 µM) |  |
